Laboratory results reported in article PMC6222718, “Ethylenediamine Derived Carboxamides of Betulinic and Ursolic Acid as Potential Cytotoxic Agents” (Molecules : A Journal of Synthetic Chemistry and Natural …, 2018).
Where a name gives a salt, the structure may show the parent alone.

Columns and labels:
518A2 (melanoma) = assay: SRB cytotoxicity assay, 518A2; type: cell-based, human; details: for EC50: Homo sapiens, SRB assay, 96 h of treatment, 518A2; for Selectivity index (SI) 518A2: SI = EC50 (NIH 3T3)/EC50 (518A2)
Method: (§1) The cytotoxicity of ursolic and betulinic carboxamides 3–30 was determined in sulforhodamine B (SRB) assays.
(§2) The cell lines used were human cancer cell lines: 518A2 (melanoma), A2780 (ovarian carcinoma), HT29 (colon adenocarcinoma), MCF-7 (breast adenocarcinoma), 8505C (thyroid carcinoma) and non-malignant mouse fibroblasts NIH 3T3. Cultures were maintained as monolayers in RPMI 1640 medium with L-glutamine (Capricorn Scientific GmbH, Ebsdorfergrund, Germany) supplemented with 10% heat inactivated fetal bovineserum (Sigma-Aldrich Chemie GmbH, Steinheim, Germany) and penicillin/streptomycin (Capricorn Scientific GmbH, Ebsdorfergrund, Germany) at 37 °C in a humidified atmosphere with 5% CO2.
(§3) The cytotoxicity of the compounds was evaluated using the sulforhodamine-B (Kiton-Red S, ABCR) micro culture colorimetric assay. Cells were seeded into 96-well plates on day 0 at appropriate cell densities to prevent confluence of the cells during the period of experiment. After 24 h, the cells were treated with 6 different concentrations (1, 3, 7, 12, 20 and 30 µM) minimum. The final concentration of DMSO/DMF never exceeded 0.5%, which was non-toxic to the cells. After a 96 h treatment, the supernatant medium from the 96-well plates was discarded, the cells were fixed with 10% trichloroacetic acid (TCA) and allowed to rest at 4 °C. After 24 h fixation, the cells were washed in a strip washer and dyed with SRB solution (100 µL, 0.4% in 1% acetic acid) for about 20 min. After dying, the plates were washed four times with 1% acetic acid to remove the excess of the dye and allowed to air-dry overnight. Tris base solution (200 µL, 10 mM) was added to each well and absorbance was measured at λ = 570 nm using a 96-well plate reader (Tecan Spectra, Crailsheim, Germany). The EC50 values were averaged from three independent experiments performed each in triplicate calculated from semi logarithmic dose response curves applying a non-linear 4P Hills-slope equation (GraphPad Prism5; variables top and bottom were set to 100 and 0, respectively).

[1] = test system: A2780 (ovarian carcinoma); assay: SRB cytotoxicity assay, A2780; type: cell-based, human; details: for EC50: Homo sapiens, SRB assay, 96 h of treatment, A2780; for Selectivity index (SI) A2780: SI = EC50 (NIH 3T3)/EC50 (A2780)
Method: as §1, §2, §3

[2] = test system: non-malignant mouse fibroblasts NIH 3T3; assay: SRB cytotoxicity assay, NIH 3T3; type: cell-based; details: NIH3T3, 96 h of treatment
Method: as §1, §2, §3

[3] = test system: 8505C (thyroid carcinoma); assay: SRB cytotoxicity assay, 8505C; type: cell-based, human; details: for EC50: Homo sapiens, SRB assay, 96 h of treatment, 8505C; for Selectivity index (SI) 8505C: SI = EC50 (NIH 3T3)/EC50 (8505C)
Method: as §1, §2, §3

[4] = test system: HT29 (colon adenocarcinoma); assay: SRB cytotoxicity assay, HT29; type: cell-based, human; details: for EC50: Homo sapiens, HT-29, SRB assay, 96 h of treatment, HT29; for Selectivity index (SI) HT29: SI = EC50 (NIH 3T3)/EC50 (HT29)
Method: as §1, §2, §3

[5] = test system: MCF-7 (breast adenocarcinoma); assay: SRB cytotoxicity assay, MCF-7; type: cell-based, human; details: for EC50: Homo sapiens, MCF7, SRB assay, 96 h of treatment, MCF-7; for Selectivity index (SI) MCF-7: SI = EC50 (NIH 3T3)/EC50 (MCF-7)
Method: as §1, §2, §3

Row | SMILES | EC50 (518A2 (melanoma)) | Selectivity index (SI) 518A2 (518A2 (melanoma)) | EC50 [1] | Selectivity index (SI) A2780 [1] | EC50 [2] | EC50 [3] | Selectivity index (SI) 8505C [3] | melting point | EC50 [4] | Selectivity index (SI) HT29 [4] | EC50 [5] | Selectivity index (SI) MCF-7 [5]
1 | C[C@@H]1CC[C@]2(C(=O)NCCN)CC[C@]3(C)C(=CCC4[C@@]5(C)CC[C@H](O)C(C)(C)C5CC[C@]43C)C2[C@H]1C (stereo partly drawn) [Compound 10, (3β)-N-(2-Aminoethyl)-3-hydroxy-urs-12-en-28-amide] | 3.7 ± 0.5 µM | 1.05 | 3.3 ± 0.1 µM | 1.18 | 3.9 ± 0.1 µM | 3.7 ± 0.4 µM | 1.05 | 139 to 142 °C | 2 ± 0.1 µM | 1.95 | 3.2 ± 0.3 µM | 1.22
2 | C[C@H]1[C@H](C)CC[C@]2(C(=O)O)CC[C@]3(C)C(=CC[C@@H]4[C@@]5(C)CC[C@H](O)C(C)(C)[C@@H]5CC[C@]43C)[C@H]12 [UA, ursolic acid] | 14.7 ± 0.1 µM | 1.27 | 11.7 ± 0.6 µM | 1.59 | 18.7 ± 1.6 µM | 13.5 ± 1.5 µM | 1.39 |  | 10.6 ± 0.7 µM | 1.76 | 12.7 ± 0.1 µM | 1.47
3 | COc1cccc2c1C(=O)c1c(O)c3c(c(O)c1C2=O)C[C@@](O)(C(=O)CO)C[C@@H]3O[C@H]1C[C@H](N)[C@H](O)[C@H](C)O1 [DRC, doxorubicin hydrochloride, reference compound] | 0.2 ± 0.05 µM | 0.30 | 0.01 ± 0.01 µM | 6.00 | 0.06 ± 0.03 µM | 1.1 ± 0.4 µM | 0.05 |  | 0.9 ± 0.2 µM | 0.07 | 1.1 ± 0.3 µM | 0.05
4 | C=C(C)C1CC[C@]2(C(=O)NCCN)CC[C@]3(C)C(CCC4[C@@]5(C)CC[C@H](O)C(C)(C)C5CC[C@]43C)C12 (stereo partly drawn) [Compound 24, (3β)-N-(2-Aminoethyl)-3-hydroxy-lup-20(29)-en-28-amide] | 0.4 ± 0.01 µM | 1.00 | 0.4 ± 0.03 µM | 1.00 | 0.4 ± 0.02 µM | 0.4 ± 0.07 µM | 1.00 |  | 0.4 ± 0.02 µM | 1.00 | 0.4 ± 0.02 µM | 1.00
5 | C=C(C)C1CC[C@]2(C(=O)NCCN)CC[C@]3(C)C(CCC4[C@@]5(C)CC[C@H](OC(C)=O)C(C)(C)C5CC[C@]43C)C12 (stereo partly drawn) [Compound 17, (3β)-N-(2-Aminoethyl)-3-acetyloxy-lup-20(29)-en-28-amide] | 1.6 ± 0.1 µM | 0.88 | 1.4 ± 0.2 µM | 1.00 | 1.4 ± 0.1 µM | 2.5 ± 0.03 µM | 0.56 |  | 1 ± 0.3 µM | 1.40 | 1.3 ± 0.06 µM | 1.08
6 | C=C(C)[C@@H]1CC[C@]2(C(=O)O)CC[C@]3(C)[C@H](CC[C@@H]4[C@@]5(C)CC[C@H](O)C(C)(C)[C@@H]5CC[C@]43C)[C@@H]12 [BA, betulinic acid, reference compound] | 9.4 ± 0.7 µM | 1.39 | 8.8 ± 0.9 µM | 1.49 | 13.1 ± 1.1 µM |  |  |  | 14.4 ± 2.3 µM | 0.91 | 10.2 ± 1.2 µM | 1.28
7 | C=C(C)C1CC[C@]2(C(=O)NCCN3CCCCC3)CC[C@]3(C)C(CCC4[C@@]5(C)CC[C@H](O)C(C)(C)C5CC[C@]43C)C12 (stereo partly drawn) [Compound 27, (3β)-N-(2-Piperidin-1-ylethyl)-3-hydroxy-lup-20(29)-en-28-amide] | 0.5 ± 0.1 µM | 0.80 | 0.4 ± 0.1 µM | 1.00 | 0.4 ± 0.01 µM | 0.8 ± 0.09 µM | 0.50 |  | 0.4 ± 0.03 µM | 1.00 | 0.4 ± 0.01 µM | 1.00
